Test results published in ChEMBL document CHEMBL1201862, “PubChem BioAssay data set” (2004).
Calls of active or inactive are those of the source.

Assays:
[1] = biological target: T1, Short transient receptor potential channel 4 (Mus musculus, UniProt Q9QUQ5); assay: SAR Analysis for the identification of selective inhibits of the transient receptor potential cation channel C4 (TRPC4): Automated Electrophysiology_2. [Related pubchem assays (depositor defined):AID2256]; format: functional
T1 sequence (Q9QUQ5 whole entry): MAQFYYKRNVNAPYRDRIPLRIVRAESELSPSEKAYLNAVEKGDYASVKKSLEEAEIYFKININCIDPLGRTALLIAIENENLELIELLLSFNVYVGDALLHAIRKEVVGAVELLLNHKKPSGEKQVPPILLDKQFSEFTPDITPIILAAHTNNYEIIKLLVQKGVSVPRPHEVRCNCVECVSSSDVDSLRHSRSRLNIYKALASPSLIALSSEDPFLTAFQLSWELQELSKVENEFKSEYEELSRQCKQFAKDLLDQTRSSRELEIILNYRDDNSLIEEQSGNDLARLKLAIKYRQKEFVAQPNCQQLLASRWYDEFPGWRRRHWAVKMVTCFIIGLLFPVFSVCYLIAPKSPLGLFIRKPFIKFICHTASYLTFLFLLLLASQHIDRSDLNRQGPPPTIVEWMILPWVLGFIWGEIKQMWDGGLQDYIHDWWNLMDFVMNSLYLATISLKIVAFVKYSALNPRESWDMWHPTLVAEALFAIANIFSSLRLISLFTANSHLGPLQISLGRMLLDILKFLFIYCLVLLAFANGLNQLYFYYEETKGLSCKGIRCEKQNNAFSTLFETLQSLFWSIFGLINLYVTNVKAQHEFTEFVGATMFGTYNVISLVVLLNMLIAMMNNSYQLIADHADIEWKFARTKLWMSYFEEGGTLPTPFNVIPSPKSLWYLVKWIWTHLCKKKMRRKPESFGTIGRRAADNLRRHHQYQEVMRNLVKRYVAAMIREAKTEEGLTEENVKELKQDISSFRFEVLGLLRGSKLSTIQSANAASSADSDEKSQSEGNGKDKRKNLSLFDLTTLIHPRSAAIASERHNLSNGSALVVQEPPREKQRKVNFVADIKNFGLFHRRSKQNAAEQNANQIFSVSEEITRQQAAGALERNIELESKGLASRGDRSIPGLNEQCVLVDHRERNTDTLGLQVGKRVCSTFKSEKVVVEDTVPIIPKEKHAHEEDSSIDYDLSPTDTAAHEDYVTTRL

[2] = biological target: Short transient receptor potential channel 6 (Mus musculus, UniProt Q61143); assay: TRPC6 inhibition potency of TRPC4 inhibitor analogs, dose response, selectivity assay for selective TRPC4 inhibitor project, HEK293 cells, membrane potential dye, IC50 (AID 492987); format: functional, cell-based
[3] = biological target: T1, Short transient receptor potential channel 4; assay: TRPC4 inhibitor concentration-response, dose response, cell-based, HEK293 TRPC4/mu-opioid, DAMGO stimulus, Fluo-4 (AID 492994); format: functional
[4] = tested on: Streptococcus sp. 'group A'; assay: growth inhibition of control SK(-) GAS strain, dose response, counter-screen for streptokinase expression inhibitor project, luminescence, kanamycin, BacTiterGlo, confirmation (AID 1900); format: functional, organism-based
BJ [5] = assay: cytotoxicity toward BJ-TERT fibroblasts, dose response, cell-based, RAS-independent, luminescence (AID 1933); format: functional; conditions: Homo sapiens
Beta-galactosidase = Beta-galactosidase (Escherichia coli, UniProt Q8VNN2); assay: PubChem AID 485352; format: functional
Streptokinase A = biological target: T2, Streptokinase A (Streptococcus pyogenes serotype M1, UniProt P10520); assay: S. pyogenes streptokinase expression inhibitors, potency, dose response, plasminogen activation absorbance, OD405 (AID 1914); format: functional, Streptococcus pyogenes M1 GAS;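 further: secreted streptokinase activity via plasminogen activation per viability signal from cell pellet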
T2 sequence (P10520 whole entry): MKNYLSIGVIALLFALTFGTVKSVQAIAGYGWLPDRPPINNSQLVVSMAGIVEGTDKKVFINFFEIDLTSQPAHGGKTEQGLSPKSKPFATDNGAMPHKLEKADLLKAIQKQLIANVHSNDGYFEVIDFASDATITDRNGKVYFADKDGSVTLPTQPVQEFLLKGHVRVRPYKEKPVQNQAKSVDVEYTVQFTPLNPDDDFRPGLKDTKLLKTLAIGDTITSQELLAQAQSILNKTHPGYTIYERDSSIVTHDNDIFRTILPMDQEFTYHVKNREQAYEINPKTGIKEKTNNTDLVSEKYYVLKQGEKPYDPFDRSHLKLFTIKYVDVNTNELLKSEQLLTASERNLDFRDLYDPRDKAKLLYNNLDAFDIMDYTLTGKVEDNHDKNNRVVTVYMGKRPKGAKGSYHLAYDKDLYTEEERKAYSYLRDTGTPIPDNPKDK

BJ [6] = assay: cells; format: functional, cell-based; conditions: Homo sapiens
[7] = biological target: T3, Type-1 angiotensin II receptor (Homo sapiens, UniProt P30556); assay: AT1 receptor antagonists, dose response, selectivity assay for APJ receptor antagonist project, cell-based, uHTS hits (AID 463214); format: functional;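 further: antagonist potency against angiotensin II stimulated AT1 response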
T3 sequence (P30556 whole entry): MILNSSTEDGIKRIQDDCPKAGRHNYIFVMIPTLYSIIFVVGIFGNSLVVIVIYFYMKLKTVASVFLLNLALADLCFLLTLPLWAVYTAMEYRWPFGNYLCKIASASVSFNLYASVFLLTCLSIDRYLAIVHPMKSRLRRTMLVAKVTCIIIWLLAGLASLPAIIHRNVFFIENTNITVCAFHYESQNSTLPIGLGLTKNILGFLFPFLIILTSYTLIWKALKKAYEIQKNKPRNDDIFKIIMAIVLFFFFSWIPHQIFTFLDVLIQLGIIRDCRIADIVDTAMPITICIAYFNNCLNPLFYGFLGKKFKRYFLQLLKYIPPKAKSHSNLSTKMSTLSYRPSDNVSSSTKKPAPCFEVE

BJ [8] = assay: cytotoxicity toward BJ-TERT-LT-ST fibroblasts, dose response, cell-based, RAS-independent, luminescence (AID 1935); format: functional; conditions: Homo sapiens;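 further: BJ fibroblasts immortalized with TERT plus LT and ST oncogenes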
[9] = cytotoxicity toward DRD oncogenic fibroblasts, dose response, cell-based, non-viral oncogenic, luminescence (AID 1934); format: functional; conditions: Homo sapiens
Streptococcus = assay: Group A Streptococcus viability loss, dose response, counter-screen for streptokinase expression inhibitor project, luminescence, BacTiterGlo (AID 1915); format: functional, organism-based;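 further: potency for reduction of bacterial viability or growth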
[10] = cytotoxicity in HEK-293T cells, dose response, cytotoxicity control for TCR NF-kB inhibitor project, luminescence, T-cell screen hits (AID 489026); format: functional, cell-based;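 further: cells exposed to compound about 14 hours before the viability readout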
BJ [11] = assay: cytotoxicity toward Ras-transformed BJeLR fibroblasts, dose response, cell-based, alamar blue fluorescence, cherrypicked samples (AID 2631); format: functional; conditions: Homo sapiens;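 further: confirmatory dose-response assay in RAS-dependent BJ fibroblasts engineered with TERT, LT and ST, with cytotoxicity read by fluorescence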
[12] = HepG2 cell cytotoxicity, dose response, cytotoxicity control, ATP luminescence, cherry-pick, activator set 2 (AID 1053143); format: functional, cell-based
[13] = biological target: T4, Beta-2 adrenergic receptor (Homo sapiens, UniProt P07550); assay: beta2AR agonists driving receptor internalization, dose response, cell-based, FAP fluorogen, flow cytometry, cherry pick 1 (AID 588763); format: functional
[14] = biological target: T4, Beta-2 adrenergic receptor; assay: Dose response for HTS for Beta-2AR agonists via FAP method from Powderset3.; format: functional
HEK293 [15] = assay: cytotoxicity in HEK293T NF-kB-Luc cells, SAR follow-up, cytotoxicity control for NF-kB activator project, cell-based, resazurin fluorescence (AID 493251); format: functional; conditions: Homo sapiens
Jurkat = assay: SAR Analysis of small molecule inhibitors of T-cell specific antigen receptor-induced NF-kB activation in a Jurkat cell line using a luminescence assay - Set 2. [Related pubchem assays (depositor defined):AID435003, AID435012, AID465]; format: functional, cell-based; conditions: Homo sapiens
HEK293 [16] = assay: SAR Analysis of small molecule inhibitors of T-cell specific antigen receptor-induced NF-kB activation in a HEK-293T cell line using a luminescence assay - Set 2. [Related pubchem assays (depositor defined):AID435003, AID435012, AID489026]; format: functional, cell-based; conditions: Homo sapiens
DNA topoisomerase = DNA topoisomerase (Yersinia pestis, UniProt A0A2S9PM60); assay: Y. pestis Topo-I inhibitors, cleavage product readout, dose response, biochemical, cherry-pick (AID 588525)
Hexokinase-1 = Hexokinase-1 (Homo sapiens, UniProt P19367); assay: SAR analysis of small molecule inhibitors of hexokinase domain containing I (HKDC1) in the hexokinase 1 selectivity assay. [Related pubchem assays (depositor defined):AID493160, AID493190]; format: functional
Hexokinase HKDC1 = biological target: T5, Hexokinase HKDC1 (Homo sapiens, UniProt Q2TB90); assay: SAR analysis of small molecule inhibitors of hexokinase domain containing I (HKDC1). [Related pubchem assays (depositor defined):AID493160, AID493190]; format: functional
T5 sequence (Q2TB90 whole entry): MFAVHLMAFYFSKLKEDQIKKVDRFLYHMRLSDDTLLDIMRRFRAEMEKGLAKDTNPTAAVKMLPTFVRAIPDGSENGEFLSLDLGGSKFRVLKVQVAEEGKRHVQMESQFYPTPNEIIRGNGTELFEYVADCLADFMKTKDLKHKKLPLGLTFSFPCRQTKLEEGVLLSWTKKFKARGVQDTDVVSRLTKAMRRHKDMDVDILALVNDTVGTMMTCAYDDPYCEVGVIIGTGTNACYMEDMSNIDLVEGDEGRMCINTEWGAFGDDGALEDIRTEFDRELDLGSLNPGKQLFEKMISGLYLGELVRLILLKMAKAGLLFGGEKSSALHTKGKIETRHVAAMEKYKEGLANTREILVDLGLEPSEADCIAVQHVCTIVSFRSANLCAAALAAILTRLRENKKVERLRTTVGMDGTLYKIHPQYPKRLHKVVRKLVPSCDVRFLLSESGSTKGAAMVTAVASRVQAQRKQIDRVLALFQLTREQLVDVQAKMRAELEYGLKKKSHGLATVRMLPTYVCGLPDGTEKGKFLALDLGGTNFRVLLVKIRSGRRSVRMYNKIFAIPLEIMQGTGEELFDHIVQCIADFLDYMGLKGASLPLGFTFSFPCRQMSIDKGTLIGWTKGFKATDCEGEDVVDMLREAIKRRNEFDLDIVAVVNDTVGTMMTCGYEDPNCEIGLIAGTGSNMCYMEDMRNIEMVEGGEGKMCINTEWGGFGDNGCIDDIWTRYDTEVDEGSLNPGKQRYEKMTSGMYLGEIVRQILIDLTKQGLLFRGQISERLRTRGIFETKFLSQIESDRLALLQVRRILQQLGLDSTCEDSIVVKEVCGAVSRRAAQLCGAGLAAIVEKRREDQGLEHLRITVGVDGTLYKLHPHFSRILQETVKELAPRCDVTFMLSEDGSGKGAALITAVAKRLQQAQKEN

Estrogen receptor beta = Estrogen receptor beta (Homo sapiens, UniProt Q92731);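 further: recombinant ER-beta bound to coactivator SRC1 peptide in presence of estradiol agonist; inhibitors block coactivator peptide binding and lower the FRET signal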
[17] = biological target: DNA dC->dU-editing enzyme APOBEC-3A (Homo sapiens, UniProt P31941); assay: Dose Response confirmation of small molecule APOBEC3A DNA Deaminase Inhibitors via a fluorescence-based single-stranded DNA deaminase assay. [Related pubchem assays (depositor defined):AID493011, AID493024]; format: functional
[18] = biological target: T6, Beta-adrenergic receptor kinase 1 (Homo sapiens, UniProt P25098); assay: aptamer displacement from bead-bound GRK2 – biochemical, cherry pick 1, bead flow cytometry, dose response (AID 504500)
T6 sequence (P25098 whole entry): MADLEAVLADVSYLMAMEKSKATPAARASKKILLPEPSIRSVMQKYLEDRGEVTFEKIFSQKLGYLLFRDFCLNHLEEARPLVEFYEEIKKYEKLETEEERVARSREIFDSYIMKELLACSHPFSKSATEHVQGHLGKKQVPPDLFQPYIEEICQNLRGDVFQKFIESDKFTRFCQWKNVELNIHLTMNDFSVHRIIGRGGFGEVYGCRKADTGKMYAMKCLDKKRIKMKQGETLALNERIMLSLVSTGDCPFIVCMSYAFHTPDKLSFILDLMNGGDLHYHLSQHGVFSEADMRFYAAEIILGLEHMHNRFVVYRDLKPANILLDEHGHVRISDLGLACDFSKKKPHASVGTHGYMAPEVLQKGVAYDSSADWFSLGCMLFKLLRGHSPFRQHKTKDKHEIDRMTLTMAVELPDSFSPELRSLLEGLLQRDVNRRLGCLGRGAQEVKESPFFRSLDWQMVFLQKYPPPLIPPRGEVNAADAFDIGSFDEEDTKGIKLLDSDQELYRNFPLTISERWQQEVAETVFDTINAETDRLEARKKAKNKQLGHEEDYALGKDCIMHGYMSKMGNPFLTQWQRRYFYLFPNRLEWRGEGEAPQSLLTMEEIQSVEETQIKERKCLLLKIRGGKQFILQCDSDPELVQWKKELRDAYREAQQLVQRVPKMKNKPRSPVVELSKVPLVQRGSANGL

[19] = biological target: DNA dC->dU-editing enzyme APOBEC-3G (Homo sapiens, UniProt Q9HC16); format: functional;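 further: Dose-response counterscreen measuring inhibition of APOBEC3G DNA deaminase activity, run while confirming APOBEC3A inhibitors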
[20] = biological target: T6, Beta-adrenergic receptor kinase 1; assay: GRK2 inhibitors displacing RNA aptamer, dose response, biochemical, flow cytometry beads, FAM-aptamer, powder set 1 (AID 588720)

T4 sequence (P07550 whole entry): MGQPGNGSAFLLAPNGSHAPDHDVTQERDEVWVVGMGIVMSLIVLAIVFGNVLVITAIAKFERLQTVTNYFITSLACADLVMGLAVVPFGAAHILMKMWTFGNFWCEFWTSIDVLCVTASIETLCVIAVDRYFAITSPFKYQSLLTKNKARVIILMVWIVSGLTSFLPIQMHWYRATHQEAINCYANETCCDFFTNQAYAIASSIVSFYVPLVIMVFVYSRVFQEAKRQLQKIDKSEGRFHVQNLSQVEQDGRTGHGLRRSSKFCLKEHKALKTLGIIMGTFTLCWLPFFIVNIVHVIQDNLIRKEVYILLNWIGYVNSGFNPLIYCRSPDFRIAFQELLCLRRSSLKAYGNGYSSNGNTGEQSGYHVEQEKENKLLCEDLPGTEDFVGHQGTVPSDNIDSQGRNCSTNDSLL
Estrogen receptor beta, sequence (Q92731 whole entry): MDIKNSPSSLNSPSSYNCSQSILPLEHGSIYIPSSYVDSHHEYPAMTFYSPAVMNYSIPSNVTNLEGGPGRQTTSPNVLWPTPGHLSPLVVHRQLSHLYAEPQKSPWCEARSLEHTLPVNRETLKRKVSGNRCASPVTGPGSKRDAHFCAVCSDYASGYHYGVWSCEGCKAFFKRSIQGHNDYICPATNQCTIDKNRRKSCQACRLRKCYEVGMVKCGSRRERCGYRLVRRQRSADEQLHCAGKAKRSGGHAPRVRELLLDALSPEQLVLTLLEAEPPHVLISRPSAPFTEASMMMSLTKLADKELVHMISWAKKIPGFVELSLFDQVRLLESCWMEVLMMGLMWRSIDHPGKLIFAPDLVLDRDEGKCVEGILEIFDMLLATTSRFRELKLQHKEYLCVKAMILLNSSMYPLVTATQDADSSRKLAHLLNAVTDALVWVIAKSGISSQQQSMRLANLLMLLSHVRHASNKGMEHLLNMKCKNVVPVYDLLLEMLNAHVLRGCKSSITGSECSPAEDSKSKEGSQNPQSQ
DNA dC->dU-editing enzyme APOBEC-3G, sequence (Q9HC16 whole entry): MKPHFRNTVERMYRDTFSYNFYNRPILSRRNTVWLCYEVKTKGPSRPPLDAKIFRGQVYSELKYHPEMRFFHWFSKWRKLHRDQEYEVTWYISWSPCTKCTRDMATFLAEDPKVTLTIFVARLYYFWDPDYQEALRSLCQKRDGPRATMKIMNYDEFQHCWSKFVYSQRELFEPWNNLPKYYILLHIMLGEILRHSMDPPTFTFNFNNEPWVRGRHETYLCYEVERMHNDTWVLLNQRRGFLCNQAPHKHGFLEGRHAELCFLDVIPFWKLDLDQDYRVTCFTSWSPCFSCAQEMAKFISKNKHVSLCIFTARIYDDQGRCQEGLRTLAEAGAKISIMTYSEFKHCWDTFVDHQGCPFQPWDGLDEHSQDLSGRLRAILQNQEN
Short transient receptor potential channel 6, sequence (Q61143 whole entry): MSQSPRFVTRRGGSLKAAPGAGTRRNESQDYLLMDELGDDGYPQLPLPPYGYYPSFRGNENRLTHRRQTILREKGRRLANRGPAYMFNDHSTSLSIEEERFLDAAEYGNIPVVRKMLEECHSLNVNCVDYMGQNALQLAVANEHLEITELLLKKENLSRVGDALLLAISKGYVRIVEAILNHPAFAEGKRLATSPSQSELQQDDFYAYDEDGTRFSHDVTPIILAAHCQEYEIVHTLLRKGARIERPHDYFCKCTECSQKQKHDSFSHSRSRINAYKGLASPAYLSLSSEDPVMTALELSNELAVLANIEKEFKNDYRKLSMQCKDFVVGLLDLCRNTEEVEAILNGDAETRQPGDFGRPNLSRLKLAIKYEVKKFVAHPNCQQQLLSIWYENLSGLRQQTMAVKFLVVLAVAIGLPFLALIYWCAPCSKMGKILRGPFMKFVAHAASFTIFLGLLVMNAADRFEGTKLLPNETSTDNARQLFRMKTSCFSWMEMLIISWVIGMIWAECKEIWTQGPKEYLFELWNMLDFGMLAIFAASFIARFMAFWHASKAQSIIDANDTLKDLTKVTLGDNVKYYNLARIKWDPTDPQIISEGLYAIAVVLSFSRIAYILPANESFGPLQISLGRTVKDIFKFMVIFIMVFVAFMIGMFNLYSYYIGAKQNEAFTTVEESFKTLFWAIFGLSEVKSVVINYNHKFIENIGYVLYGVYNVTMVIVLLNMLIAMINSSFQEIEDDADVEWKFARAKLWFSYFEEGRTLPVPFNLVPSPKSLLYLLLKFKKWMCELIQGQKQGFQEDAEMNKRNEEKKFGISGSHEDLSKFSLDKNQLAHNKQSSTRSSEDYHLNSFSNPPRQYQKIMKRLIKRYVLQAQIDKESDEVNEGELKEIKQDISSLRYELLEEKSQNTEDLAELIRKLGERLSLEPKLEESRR
DNA topoisomerase, sequence (A0A2S9PM60 whole entry, the tested form may be a part): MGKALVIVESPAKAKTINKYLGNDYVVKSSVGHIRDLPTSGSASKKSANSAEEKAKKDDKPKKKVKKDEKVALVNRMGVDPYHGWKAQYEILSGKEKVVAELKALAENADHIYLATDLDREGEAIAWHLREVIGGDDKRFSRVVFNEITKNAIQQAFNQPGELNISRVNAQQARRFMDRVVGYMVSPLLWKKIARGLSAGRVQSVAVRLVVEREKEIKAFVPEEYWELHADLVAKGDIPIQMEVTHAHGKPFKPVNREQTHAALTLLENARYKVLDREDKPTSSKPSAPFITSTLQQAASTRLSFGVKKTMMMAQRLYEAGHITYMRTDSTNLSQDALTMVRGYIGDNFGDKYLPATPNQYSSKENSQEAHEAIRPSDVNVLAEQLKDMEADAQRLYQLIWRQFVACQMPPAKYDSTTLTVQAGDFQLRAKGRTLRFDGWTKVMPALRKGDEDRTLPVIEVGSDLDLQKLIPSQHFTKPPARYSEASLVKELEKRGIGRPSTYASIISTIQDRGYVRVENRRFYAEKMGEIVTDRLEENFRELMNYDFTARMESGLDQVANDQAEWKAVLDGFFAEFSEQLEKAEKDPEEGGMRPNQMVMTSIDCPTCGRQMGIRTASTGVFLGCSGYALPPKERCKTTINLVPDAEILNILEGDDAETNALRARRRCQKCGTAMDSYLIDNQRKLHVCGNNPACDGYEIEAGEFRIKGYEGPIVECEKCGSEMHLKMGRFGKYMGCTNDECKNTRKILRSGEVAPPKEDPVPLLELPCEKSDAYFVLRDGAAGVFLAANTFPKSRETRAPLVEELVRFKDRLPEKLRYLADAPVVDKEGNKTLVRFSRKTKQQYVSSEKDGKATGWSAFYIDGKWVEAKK
Hexokinase-1, sequence (P19367 whole entry, the tested form may be a part): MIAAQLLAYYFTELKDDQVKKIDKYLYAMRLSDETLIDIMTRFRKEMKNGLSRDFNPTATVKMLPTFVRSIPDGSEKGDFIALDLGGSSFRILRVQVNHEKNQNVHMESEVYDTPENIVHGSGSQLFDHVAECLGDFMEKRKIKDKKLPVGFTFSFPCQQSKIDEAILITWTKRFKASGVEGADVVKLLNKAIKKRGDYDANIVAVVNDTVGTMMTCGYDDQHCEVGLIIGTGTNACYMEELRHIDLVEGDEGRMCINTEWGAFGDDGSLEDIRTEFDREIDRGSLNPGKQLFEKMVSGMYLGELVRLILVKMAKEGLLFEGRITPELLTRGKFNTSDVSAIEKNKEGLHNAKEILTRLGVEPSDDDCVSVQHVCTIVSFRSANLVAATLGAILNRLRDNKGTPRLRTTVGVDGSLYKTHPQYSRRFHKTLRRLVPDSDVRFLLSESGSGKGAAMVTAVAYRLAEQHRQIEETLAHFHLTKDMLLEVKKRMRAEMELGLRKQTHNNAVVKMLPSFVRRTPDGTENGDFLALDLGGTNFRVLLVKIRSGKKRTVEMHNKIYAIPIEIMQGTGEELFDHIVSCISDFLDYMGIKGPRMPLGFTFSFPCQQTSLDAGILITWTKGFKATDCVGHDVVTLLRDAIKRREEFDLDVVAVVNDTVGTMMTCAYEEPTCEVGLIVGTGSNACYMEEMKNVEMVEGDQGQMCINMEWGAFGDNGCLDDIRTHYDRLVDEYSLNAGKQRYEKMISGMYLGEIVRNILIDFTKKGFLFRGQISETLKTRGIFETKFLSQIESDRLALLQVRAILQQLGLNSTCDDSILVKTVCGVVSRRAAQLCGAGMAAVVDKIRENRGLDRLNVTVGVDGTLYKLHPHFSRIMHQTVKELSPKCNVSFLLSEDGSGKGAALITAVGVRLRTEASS
Beta-galactosidase, sequence (Q8VNN2 whole entry): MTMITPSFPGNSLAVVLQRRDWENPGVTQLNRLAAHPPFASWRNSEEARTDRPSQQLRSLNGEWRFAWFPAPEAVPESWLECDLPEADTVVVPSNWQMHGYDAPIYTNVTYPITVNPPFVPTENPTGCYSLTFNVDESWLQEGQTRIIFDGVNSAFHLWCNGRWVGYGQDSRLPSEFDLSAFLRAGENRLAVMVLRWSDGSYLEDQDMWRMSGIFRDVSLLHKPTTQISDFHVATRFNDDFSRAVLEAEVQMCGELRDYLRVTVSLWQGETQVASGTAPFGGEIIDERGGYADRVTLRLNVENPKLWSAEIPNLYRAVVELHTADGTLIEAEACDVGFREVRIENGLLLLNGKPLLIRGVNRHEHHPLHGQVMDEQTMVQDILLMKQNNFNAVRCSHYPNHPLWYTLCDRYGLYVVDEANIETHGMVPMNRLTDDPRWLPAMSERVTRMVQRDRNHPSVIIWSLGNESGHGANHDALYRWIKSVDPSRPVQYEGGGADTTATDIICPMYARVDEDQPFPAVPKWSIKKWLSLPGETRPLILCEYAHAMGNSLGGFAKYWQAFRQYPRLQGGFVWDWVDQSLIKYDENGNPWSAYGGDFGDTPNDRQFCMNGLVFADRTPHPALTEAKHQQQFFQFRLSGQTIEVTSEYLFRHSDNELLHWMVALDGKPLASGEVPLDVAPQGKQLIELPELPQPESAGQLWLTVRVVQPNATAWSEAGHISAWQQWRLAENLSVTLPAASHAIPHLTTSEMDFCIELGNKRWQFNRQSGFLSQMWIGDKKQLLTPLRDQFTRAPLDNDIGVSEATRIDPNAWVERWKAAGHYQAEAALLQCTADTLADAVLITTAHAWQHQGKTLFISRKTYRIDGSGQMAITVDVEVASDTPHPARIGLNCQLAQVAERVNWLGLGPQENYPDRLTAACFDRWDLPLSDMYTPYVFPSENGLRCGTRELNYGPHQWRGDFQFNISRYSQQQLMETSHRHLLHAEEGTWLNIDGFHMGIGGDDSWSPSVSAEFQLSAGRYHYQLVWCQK

In the case of Cc1cc(N2CCCC2)nc2c(C)cccc12, the IC50 [1] was 9.96 µM (active), the IC50 [2] was 9.8 µM (active) and the IC50 [3] was 10.7 µM (active).
For COc1cc(/C=C/c2ccc3cccc(O)c3n2)cc(OC)c1OC, the EC50 [4] was 2.28 µM (active), the EC50 (BJ [5]) was 1.26 µM (active) and the EC50 (Beta-galactosidase) was > 40 µM (inactive). The EC50 (Streptokinase A) was > 150 µM (not active), the EC50 (BJ [6]) was 47.8 µM (inconclusive) and the IC50 [7] was 6.2 µM (active). The EC50 (BJ [8]) was 1.2 µM (inconclusive), the EC50 [9] was 1.5 µM (active) and the EC50 (Streptococcus) was 15.6 µM (active). For the same molecule, the IC50 [10] was > 80 µM (inactive), the EC50 (BJ [11]) was 2.96 µM (inconclusive) and the AC50 [12] was 9.5 µM (active).
In the case of C=CCn1c(CCNC(=O)c2cccs2)nnc1SCC(=O)c1ccc(Br)cc1, the EC50 [13] was 0.214 µM (active) and the EC50 [14] was 0.00548 µM (active).
For COc1ccc(C(=O)Nc2ccc(NC(=O)c3cc4ccccc4o3)cc2)cc1Br, the IC50 (HEK293 [15]) was > 80 µM (inactive), the IC50 (Jurkat) was > 79 µM (inactive) and the IC50 (HEK293 [16]) was > 80 µM (inactive).
With O=C(Nc1ccccc1Cl)OCC#CCOC(=O)Nc1ccccc1Cl the AC50 (DNA topoisomerase) was 12.6 µM (active).
With O=c1c2ccccc2nc(/C=C/c2ccccc2Cl)n1Cc1ccccc1 the IC50 (Hexokinase-1) was > 80 µM (inactive) and the IC50 (Hexokinase HKDC1) was > 80 µM (inactive).
For Cc1cc(=O)[nH]c(SCC(=O)NCc2ccco2)n1, the IC50 (Estrogen receptor beta) was 6.27 µM (active), the IC50 [17] was 17.4 µM (active) and the EC50 [18] was 22.1 µM (inactive). The IC50 [19] was 43.4 µM (active) and the EC50 [20] was 44.9 µM (active).
